Test systems include HCT-15; TK-10; HL-60; MDA-MB-435; MCF7; OVCAR-8; SK-OV-3; NCI-H522; SN12C; IGROV-1; NCI-H226; ACHN; T47D; COLO 205; NCI-H460; LOX IMVI; CAKI-1; SF-539; MDA-MB-231; SK-MEL-28.
What all share (assay): inhibition of tumour cell growth, NCI panel, 48 h

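48-hour exposure; five concentrations; linearly interpolated endpoints. The concentration for 50% growth inhibition is given as GI50.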 Activity calls are given as the source filed them. No stated cut-off is given here; in the data, active = GI50 up to about 1.1 µM and inactive = higher.

As to `CC1(C)C/C(=N/O)c2c(nc3ccc4ccccc4c3c2-c2ccc(Cl)cc2)C1`, the GI50 with HCT-15 is 16.4 µM; in the experiment on TK-10 it was 16.1 µM (inactive); in the experiment with HL-60 it was 9.14 µM (inactive); in the experiment with MDA-MB-435, 60.1 µM (inactive); in the experiment on MCF7, 11.2 µM (inactive); in the experiment on OVCAR-8 it was 12.5 µM (inactive). The GI50 with SK-OV-3 is 15 µM (inactive); in the experiment on NCI-H522, 15.3 µM (inactive); in the experiment with SN12C, 10.8 µM (inactive); in the experiment with IGROV-1, 14.9 µM (inactive); in the experiment with NCI-H226, 21 µM (inactive); in the experiment with ACHN it was 6.79 µM (inactive). Further, the GI50 in the experiment on T47D is 12.1 µM (inactive); in the experiment on COLO 205 it was 18.2 µM (inactive); in the experiment with NCI-H460 it was 6.14 µM (inactive); in the experiment with LOX IMVI, 13.7 µM (inactive); in the experiment on CAKI-1, 13.5 µM (inactive); in the experiment on SF-539, 16.6 µM (inactive). The values for the GI50 with MDA-MB-231 and in the experiment with SK-MEL-28 were 11.6 µM (inactive) and 31.3 µM (inactive), respectively.
Regarding `Cc1ccccc1C(=O)N1CCc2c([nH]c3ccccc23)C1`, the GI50 is 21.3 µM with HCT-15; 28.2 µM (inactive) in the experiment on TK-10; 17.5 µM (inactive) in the experiment with HL-60; 14.4 µM (inactive) in the experiment with MDA-MB-435; 21 µM (inactive) in the experiment on MCF7; 27 µM (inactive) with OVCAR-8. Moreover, the GI50 in the experiment on SK-OV-3 was 32.4 µM (inactive); in the experiment with NCI-H522 it was 19.1 µM (inactive); with SN12C, 17.2 µM (inactive); in the experiment on IGROV-1, 25.7 µM (inactive); in the experiment with NCI-H226 it was 21.8 µM (inactive); in the experiment with ACHN it was 34.9 µM (inactive). Besides, the GI50 in the experiment with T47D is 21.9 µM (inactive); in the experiment with COLO 205 it was 17.4 µM (inactive); in the experiment with NCI-H460 it was 21.7 µM (inactive); in the experiment on LOX IMVI, 21.9 µM (inactive); in the experiment on CAKI-1, 24.4 µM (inactive); with SF-539, 21.5 µM (inactive). The GI50 with MDA-MB-231 is 12.7 µM (inactive); in the experiment with SK-MEL-28, 28.9 µM (inactive).
Take `COC(=O)C1=C(C(=O)OC)C(OO)(c2ccccc2)OC1=O` (stereo not given): the GI50 in the experiment on HCT-15 was 40.6 µM; with TK-10, > 100 µM (inactive); in the experiment on HL-60, > 100 µM (inactive); in the experiment on MDA-MB-435, > 100 µM (inactive); in the experiment with MCF7, 52.1 µM (inactive); in the experiment on OVCAR-8, > 100 µM (inactive). Moreover, the GI50 in the experiment on SK-OV-3 was > 100 µM (inactive); in the experiment on NCI-H522, 60.7 µM (inactive); in the experiment on SN12C, 86.3 µM (inactive); in the experiment on IGROV-1, 35 µM (inactive); in the experiment with NCI-H226 it was > 100 µM (inactive); in the experiment on ACHN, > 100 µM (inactive). Further, the GI50 in the experiment with T47D was > 100 µM (inactive); in the experiment with COLO 205, > 100 µM (inactive); in the experiment with NCI-H460, 48.6 µM (inactive); in the experiment with LOX IMVI, 31.3 µM (inactive); in the experiment on CAKI-1, > 100 µM (inactive); in the experiment with SF-539 it was 33.3 µM (inactive). In addition, the GI50 in the experiment on MDA-MB-231 was 58.2 µM (inactive); with SK-MEL-28 it was > 100 µM (inactive).
For the compound `O=[N+]([O-])c1ccc2c(/N=N/c3ccc4ccccc4c3O)c(O)cc(S(=O)(=O)O)c2c1`, the GI50 with HCT-15 was 9.93 µM; with TK-10 it was > 65.3 µM (inactive); with HL-60, 9.06 µM (inactive); in the experiment on MDA-MB-435, 16.7 µM (inactive); with MCF7, 30.3 µM (inactive); with OVCAR-8 it was 7.41 µM (inactive). Moreover, the GI50 is 18.7 µM (inactive) in the experiment with SK-OV-3; 7.71 µM (inactive) in the experiment with NCI-H522; 38.5 µM (inactive) in the experiment on SN12C; 8.65 µM (inactive) with IGROV-1; 4.66 µM (inactive) with NCI-H226; 7.13 µM (inactive) in the experiment on ACHN. The GI50 with T47D was 20.4 µM (inactive); in the experiment with COLO 205, 27.7 µM (inactive); in the experiment on NCI-H460, 38.5 µM (inactive); in the experiment on LOX IMVI, 6.65 µM (inactive); with CAKI-1 it was 12.6 µM (inactive); in the experiment with SF-539, 11.4 µM (inactive). Also, the GI50 in the experiment on MDA-MB-231 was 35 µM (inactive); in the experiment on SK-MEL-28 it was 12 µM (inactive).

The values above are taken from ChEMBL document CHEMBL1201862, “PubChem BioAssay data set” (2004).
